Where two headings read alike, the source gives them in different places. Marks after values point to notes of the source that are not given here.
Assays:
[1] = Adult sildenafil/DMS PBPK population simulations; parameters: species or system human
[2] = ref [46]; cited from earlier work
[3] = test system: plasma protein (AAG); conditions: cited from earlier work; for fu, predominant plasma binding protein: AAG, ref [15],[16]
[4] = molecular target: T1, CYP3A4 (Homo sapiens, UniProt P08684); conditions: cited from earlier work
[5] = molecular target: T2, CYP3A5 (Homo sapiens, UniProt P20815); conditions: cited from earlier work
[6] = molecular target: T3, CYP3A7 (Homo sapiens, UniProt P24462); conditions: ref [18], cited from earlier work
[7] = cited from earlier work; for DMS AUC Observed / Sildenafil AUC Observed: geometric mean
[8] = with vs without ritonavir; day 8; cited from earlier work
[9] = molecular target: T1, CYP3A4; assay: Fluconazole inhibition of 6β-hydroxytestosterone formation, recombinant CYP3A4; format: biochemical
[10] = molecular target: T2, CYP3A5; assay: Fluconazole inhibition of 6β-hydroxytestosterone formation, recombinant CYP3A5; format: biochemical
[11] = molecular target: T3, CYP3A7; assay: Fluconazole inhibition of 6β-hydroxytestosterone formation, recombinant CYP3A7; format: biochemical
[12] = test system: CYP3A4/5/7; conditions: read-out: KM CYP3A4/5/7 sink; remainder of sildenafil metabolites; fixed; ref [27]; cited from earlier work
[13] = test system: CYP2C9; conditions: DMS formation, ref [12], cited from earlier work
[14] = cited from earlier work; for sildenafil clearance (CL): 36 term neonates, i.v. sildenafil; for Sildenafil CL Observed / Sildenafil Vss Observed: PopPK typical value scaled to 70 kg
[15] = PopPK, cited from earlier work
[16] = test system: phosphodiesterase type 5; conditions: ref [37], cited from earlier work
[17] = adults with pulmonary arterial hypertension; ref [44]; cited from earlier work
[18] = children 1 to 17 years; low dose 10 mg in children > 20 kg; ref [24]; cited from earlier work

T2 sequence (P20815 whole entry): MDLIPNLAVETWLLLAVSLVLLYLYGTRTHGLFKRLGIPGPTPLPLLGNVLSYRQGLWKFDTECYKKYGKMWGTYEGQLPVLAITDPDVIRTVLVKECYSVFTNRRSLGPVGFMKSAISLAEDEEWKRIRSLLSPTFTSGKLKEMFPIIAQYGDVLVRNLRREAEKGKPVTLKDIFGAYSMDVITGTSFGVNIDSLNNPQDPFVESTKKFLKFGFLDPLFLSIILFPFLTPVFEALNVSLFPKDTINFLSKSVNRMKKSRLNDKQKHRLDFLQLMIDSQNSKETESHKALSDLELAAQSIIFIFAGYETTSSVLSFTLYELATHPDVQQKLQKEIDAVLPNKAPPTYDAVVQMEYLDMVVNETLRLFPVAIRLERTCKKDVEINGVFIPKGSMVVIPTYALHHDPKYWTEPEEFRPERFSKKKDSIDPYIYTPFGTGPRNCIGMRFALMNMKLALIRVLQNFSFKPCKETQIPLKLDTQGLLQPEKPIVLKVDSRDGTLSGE
T3 sequence (P24462 whole entry): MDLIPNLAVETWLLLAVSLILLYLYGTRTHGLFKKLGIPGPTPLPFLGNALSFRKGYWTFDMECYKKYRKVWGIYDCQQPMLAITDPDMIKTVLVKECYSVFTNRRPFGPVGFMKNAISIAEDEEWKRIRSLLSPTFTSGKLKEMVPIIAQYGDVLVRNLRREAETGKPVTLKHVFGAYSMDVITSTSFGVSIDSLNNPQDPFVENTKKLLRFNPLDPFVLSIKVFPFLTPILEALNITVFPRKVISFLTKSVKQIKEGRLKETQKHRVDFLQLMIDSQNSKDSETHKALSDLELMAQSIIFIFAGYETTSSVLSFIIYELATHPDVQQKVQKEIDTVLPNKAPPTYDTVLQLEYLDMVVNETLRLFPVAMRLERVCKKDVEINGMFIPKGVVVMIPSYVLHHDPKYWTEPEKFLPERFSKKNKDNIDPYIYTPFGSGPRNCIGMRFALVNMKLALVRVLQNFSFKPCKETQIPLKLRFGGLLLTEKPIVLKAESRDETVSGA
T1 sequence (P08684 2-503 limits assumed): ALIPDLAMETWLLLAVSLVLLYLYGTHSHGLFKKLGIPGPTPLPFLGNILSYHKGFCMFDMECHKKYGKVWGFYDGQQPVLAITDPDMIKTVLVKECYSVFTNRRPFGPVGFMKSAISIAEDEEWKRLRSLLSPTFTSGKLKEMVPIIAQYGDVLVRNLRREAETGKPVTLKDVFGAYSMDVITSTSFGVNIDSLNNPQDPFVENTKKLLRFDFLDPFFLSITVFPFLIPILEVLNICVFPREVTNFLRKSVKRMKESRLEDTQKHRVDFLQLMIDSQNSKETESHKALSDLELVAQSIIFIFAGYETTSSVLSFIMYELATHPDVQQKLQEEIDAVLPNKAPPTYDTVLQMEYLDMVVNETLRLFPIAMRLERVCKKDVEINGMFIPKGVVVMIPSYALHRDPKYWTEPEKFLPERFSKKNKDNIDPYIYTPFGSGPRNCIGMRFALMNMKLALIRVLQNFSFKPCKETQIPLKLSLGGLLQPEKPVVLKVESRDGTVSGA

## CCCc1nn(C)c2c(=O)[nH]c(-c3cc(S(=O)(=O)N4CCNCC4)ccc3OCC)nc12 [DMS, N-desmethylsildenafil]
[1]; 25 mg sildenafil single oral dose
  DMS AUC Ratio simulated/observed: 1.01
[1]; 50 mg sildenafil single oral dose
  DMS AUC Ratio simulated/observed: 0.94
[1]; 100 mg sildenafil single oral dose
  DMS AUC Ratio simulated/observed: 0.85
[1]; 200 mg sildenafil single oral dose
  DMS AUC Ratio simulated/observed: 0.79
[1]; sildenafil 25 mg/25-minute infusion i.v.
  DMS AUC Ratio simulated/observed: 1.87
[2]
  Water solubility: 419 µg/mL
  pKa: 7.16
[3]
  fu, predominant plasma binding protein: 0.04 (AAG)
[4]; CYP3A4, ref [18]
  in vitro formation kinetic intrinsic clearance (CLint) for DMS: 0.733 μL/min/pmol CYP3A
[5]; CYP3A5, ref [18]
  in vitro formation kinetic intrinsic clearance (CLint) for DMS: 0.788 μL/min/pmol CYP3A
[6]; CYP3A7
  in vitro formation kinetic intrinsic clearance (CLint) for DMS: 0.079 μL/min/pmol CYP3A
[7]; 25 mg sildenafil single oral dose, AUC0–∞, ref [47]
  DMS AUC Observed: 147 ng·h/mL
[7]; 50 mg sildenafil single oral dose, AUC0–∞, ref [47]
  DMS AUC Observed: 328 ng·h/mL
[7]; 100 mg sildenafil single oral dose, AUC0–∞, ref [47]
  DMS AUC Observed: 776 ng·h/mL
[7]; 200 mg sildenafil single oral dose, AUC0–∞, ref [47]
  DMS AUC Observed: 1822 ng·h/mL
[7]; sildenafil 25 mg/25-minute infusion i.v., AUC0–∞, ref [13]
  DMS AUC Observed: 147 ng·h/mL
[8]
  DMS AUC0-24 Fold Change observed: 1.7

## OC(Cn1cncn1)(Cn1cncn1)c1ccc(F)cc1F [Fluconazole, fluconazole]
[9]; mixed model, value (90% CI)
  Alpha: 16.6 (6.1–178)
[9]; recombinant CYP3A4, testosterone probe
  Inhibition type: mixed competitive inhibitor
[9]; value (90% CI)
  KI uncompetitive: 83.1 (67.4–102.9) μM
[10]; KI competitive, value (90% CI)
  Ki: 70.8 µM
[10]; KI global, net value of mixed model, value (90% CI), triplicates
  Ki: 182 µM
[10]; mixed model, value (90% CI)
  Alpha: 2.6 (0.5–13.9)
[10]; recombinant CYP3A5, testosterone probe
  Inhibition type: mixed competitive inhibitor
[10]; value (90% CI)
  KI uncompetitive: 238.7 (183.2–318.9) μM
[11]; mixed model, value (90% CI)
  Alpha: 13.5 (1.8–∞)
[11]; recombinant CYP3A7, testosterone probe
  Inhibition type: mixed competitive inhibitor
[11]; value (90% CI)
  KI uncompetitive: 389.0 (266.7–610.3) μM

## CCCc1nn(C)c2c(=O)[nH]c(-c3cc(S(=O)(=O)N4CCN(C)CC4)ccc3OCC)nc12 [Sildenafil, sildenafil]
[2]
  pKa: 5.97
[3]
  fu, predominant plasma binding protein: 0.04 (AAG)
[3]; infants, ref [20]
  protein binding of sildenafil: 93.9%
[4]; DMS formation, ref [27]
  Vmax CYP3A4 DMS: 1.00 pmol/min/pmol
[4]; read-out: KM CYP3A4 DMS, DMS formation, ref [27]
  Km: 15 µM
[5]; read-out: KM CYP3A5 DMS, DMS formation, ref [27]
  Km: 14.7 µM
[6]; read-out: KM CYP3A7 DMS, DMS formation
  Km: 5.71 µM
[12]
  Km: 15 µM
[13]
  Vmax CYP2C9 DMS: 78 pmol/min/mg
[13]; read-out: KM CYP2C9 DMS
  Km: 27 µM
[7]; 10 mg i.v. bolus, adults with pulmonary arterial hypertension, AUC0–τ (8 hours), ref [49]
  Sildenafil AUC Observed: 330 ng·h/mL
[7]; 25 mg single oral dose, healthy men, AUC0–∞, ref [47]
  Sildenafil AUC Observed: 361 ng·h/mL
[7]; 25 mg/25-minute infusion i.v., healthy adult men, AUC0–∞, ref [13]
  Sildenafil AUC Observed: 971 ng·h/mL
[7]; 50 mg single oral dose, healthy men, AUC0–∞, ref [47]
  Sildenafil AUC Observed: 738 ng·h/mL
[7]; 50 mg/50-minute infusion i.v., healthy men, AUC0–∞, ref [47]
  Sildenafil AUC Observed: 1291 ng·h/mL
[7]; 80 mg p.o. t.i.d. after 20 mg t.i.d. for 3 days, healthy men, AUC0–τ, ref [48]
  Sildenafil AUC Observed: 1720 ng·h/mL
[7]; 100 mg single oral dose, healthy men, AUC0–∞, ref [47]
  Sildenafil AUC Observed: 1685 ng·h/mL
[7]; 200 mg single oral dose, healthy men, AUC0–∞, ref [47]
  Sildenafil AUC Observed: 3755 ng·h/mL
[7]; Healthy adults, PopPK, mean (inter-individual variability), ref [50]
  Sildenafil CL Observed: 29.5 (31.2%)^d liters/hour
[7]; Healthy adults, PopPK, ref [50]
  Sildenafil Vss Observed: 107 (N/A)^d liters
[7]; Patients with PAH, 10 mg i.v. bolus, ref [49]
  Sildenafil CL Observed: 32.2 (N/A)^c liters/hour
[7]; Patients with PAH, reported as terminal phase volume (Vz), ref [49]
  Sildenafil Vss Observed: 137 (N/A)^c liters
[14]; 7 days of age, ref [19]
  sildenafil clearance (CL): 2.58 L/h
[14]; day 1, ref [19]
  sildenafil clearance (CL): 0.84 L/h
[14]; Preterm infants, ref [21]
  Sildenafil CL Observed: 27.8 (33.3%)^b,e liters/hour
  Sildenafil Vss Observed: 144 (N/A)^b,e liters
[14]; Term neonates, ref [19]
  Sildenafil CL Observed: 24.7 (54.7%)^b,f liters/hour
  Sildenafil Vss Observed: 456 (N/A)^b,f liters
[14]; full-term neonates, ref [20]
  Vss in full-term neonates, not scaled: 22.4 L
[15]; 11 infants 2–121 days old, 3 with fluconazole, nasogastric tube, ref [20]
  decrease in sildenafil clearance by fluconazole: 47%
[15]; 34 preterm infants, 4 with fluconazole, ref [21]
  decrease in sildenafil CL by fluconazole: 59%
[16]; at steady-state Cmax 47 ng/mL
  unbound inhibition of in vitro phosphodiesterase type 5 activity: 53%
[16]; at steady-state Cmax 140 ng/mL
  unbound inhibition of in vitro phosphodiesterase type 5 activity: 77%
[16]; at steady-state Cmax 373 ng/mL
  unbound inhibition of in vitro phosphodiesterase type 5 activity: 90%
[17]
  concentration of half-maximal effect, pulmonary vascular resistance: 17 ng/mL
  concentration that produces the maximal effect, pulmonary vascular resistance: around 100 ng/mL
[18]
  efficacy of the low dose: ineffective

Source: paper PMC8138939 (Clinical pharmacology and therapeutics, 2020)
